Data published in US9963445B2, “Chemical compounds” (SYNGENTA PARTICIPATIONS AG, priority 2013, dated 2018).

Experiments:
Assay type in all cases: in vivo
Alopecurus myosuroides [1] = experiment: Pre-emergence herbicidal activity, glasshouse pot test; details: pre-emergence spray, rate 1000 g/ha, evaluated after 13 days, scale 0-5
Method in brief: (§1)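 Test species were sown in pots and, after one day under controlled glasshouse conditions, treated with an aqueous spray of the active ingredient in acetone/water containing 0.5% Tween 20. Evaluation followed 13 days later, scoring plant damage from 0 (none) to 5 (total).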

Abutilon theophrasti [2] = experiment: as above; details: pre-emergence spray, rate 1000 g/ha, evaluated after 13 days, scale 0-5
Method in brief: as §1

Echinochloa crus-galli [3] = experiment: as above; details: pre-emergence spray, rate 1000 g/ha, evaluated after 13 days, scale 0-5
Method in brief: as §1

Amaranthus retroflexus [4] = experiment: as above; details: pre-emergence spray, rate 1000 g/ha, evaluated after 13 days, scale 0-5
Method in brief: as §1

Setaria faberi [5] = experiment: as above; details: pre-emergence spray, rate 1000 g/ha, evaluated after 13 days, scale 0-5
Method in brief: as §1

zea mays [6] = experiment: as above; details: pre-emergence spray, rate 1000 g/ha, evaluated after 13 days, scale 0-5
Method in brief: as §1

Alopecurus myosuroides [7] = experiment: Post-emergence herbicidal activity, glasshouse pot test; set-up: key: 0 = no damage to plant, 5 = total damage to plant; details: Application post-emergence, rate 1000 g/ha, evaluated after 13 days
Method in brief: (§2)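 Damage rated 0 (none) to 5 (total) 13 days after spraying. Plants were treated post-emergence at 8 days after sowing, using an acetone/water (50:50) formulation with 0.5% Tween 20 diluted to an aqueous spray.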

Abutilon theophrasti [8] = experiment: as above; set-up: key: 0 = no damage to plant, 5 = total damage to plant; details: Application post-emergence, rate 1000 g/ha, evaluated after 13 days
Method in brief: as §2

Echinochloa crus-galli [9] = experiment: as above; set-up: key: 0 = no damage to plant, 5 = total damage to plant; details: Application post-emergence, rate 1000 g/ha, evaluated after 13 days
Method in brief: as §2

Amaranthus retroflexus [10] = experiment: as above; set-up: key: 0 = no damage to plant, 5 = total damage to plant; details: Application post-emergence, rate 1000 g/ha, evaluated after 13 days
Method in brief: as §2

Setaria faberi [11] = experiment: as above; set-up: key: 0 = no damage to plant, 5 = total damage to plant; details: Application post-emergence, rate 1000 g/ha, evaluated after 13 days
Method in brief: as §2

zea mays [12] = experiment: as above; set-up: key: 0 = no damage to plant, 5 = total damage to plant; details: Application post-emergence, rate 1000 g/ha, evaluated after 13 days
Method in brief: as §2

| Molecule | ALOMY damage score, application pre-emergence (Alopecurus myosuroides [1]) | ABUTH damage score, application pre-emergence (Abutilon theophrasti [2]) | ECHCG damage score, application pre-emergence (Echinochloa crus-galli [3]) | AMARE damage score, application pre-emergence (Amaranthus retroflexus [4]) | SETFA damage score, application pre-emergence (Setaria faberi [5]) | ZEAMX damage score, application pre-emergence (zea mays [6]) | ALOMY herbicidal damage score (Alopecurus myosuroides [7]) | ABUTH herbicidal damage score (Abutilon theophrasti [8]) | ECHCG herbicidal damage score (Echinochloa crus-galli [9]) | AMARE herbicidal damage score (Amaranthus retroflexus [10]) | SETFA herbicidal damage score (Setaria faberi [11]) | ZEAMX herbicidal damage score (zea mays [12]) |
| --- | --- | --- | --- | --- | --- | --- | --- | --- | --- | --- | --- | --- |
| COC1=C(C)C(O)N(c2ccc(C(=O)NC(C)(C)C#N)cn2)C1=O (stereo not drawn) [AI25] | 4 | 4 | 3 | 5 | 4 | 2 | 5 | 5 | 5 | 5 | 5 | 3 |
| CCC(=O)OC1C(C)=C(Cl)C(=O)N1c1cc(C(F)(F)F)c(-c2cccc(C#N)c2)cn1 (stereo not drawn) [AF94] | 0 | 0 | 0 | 3 | 0 | 0 | 3 | 3 | 3 | 4 | 3 | 1 |
| 4-chloro-2-hydroxy-1-[5-iodo-4-(trifluoromethyl)-2-pyridyl]-3-methyl-2H-pyrrol-5-one [AF76] | 3 | 4 | 4 | 5 | 5 | 1 | 5 | 5 | 5 | 5 | 5 | 1 |
| COC1=C(C)C(O)N(c2cc(F)ccn2)C1=O (stereo not drawn) [AI23] | 3 | 1 | 5 | 5 | 4 | 1 | 5 | 5 | 5 | 5 | 5 | 3 |
| COC1=C(OC)C(O)N(c2cc(F)ccn2)C1=O (stereo not drawn) [AK3] | 2 | 5 | 4 | 5 | 3 | 2 | 4 | 5 | 5 | 4 | 5 | 4 |
| CC1=C(Cl)C(=O)N(c2cc(/C=C/C(C)(C)C)ccn2)C1O (stereo not drawn) [AF26] | 0 | 0 | 0 | 0 | 0 | 0 | 0 | 1 | 2 | 1 | 0 | 2 |
| CC(C)C1=C(Cl)C(=O)N(c2cc(C(F)(F)F)ccn2)C1O (stereo not drawn) [AF83] | 2 | 0 | 2 | 2 | 1 | 1 | 3 | 2 | 2 | 0 | 0 | 0 |
| CC1=C(Cl)C(=O)N(c2ccc(C(C)(C)C#N)cn2)C1O (stereo not drawn) [AF102] | 3 | 5 | 5 | 5 | 4 | 3 | 5 | 5 | 5 | 5 | 5 | 5 |
| CCN(CC)C(=O)c1cnc(N2C(=O)C(Cl)=C(C)C2O)cc1C(F)(F)F (stereo not drawn) [AF96] | 0 | 0 | 0 | 0 | 0 | 0 | 0 | 0 | 0 | 0 | 0 | 1 |
| CC1=C(Cl)C(=O)N(c2cc3c(cn2)CCCC3)C1O (stereo not drawn) [AF89] | 2 | 1 | 3 | 2 | 5 | 1 | 3 | 5 | 5 | 5 | 5 | 1 |
| CC1=C(Br)C(=O)N(c2cc(C(F)(F)F)ncn2)C1O (stereo not drawn) [CG1] | 3 | 4 | 5 | 1 | 4 | 0 | 5 | 4 | 5 | 2 | 5 | 3 |
| CCOC1=C(C)C(O)N(c2cc(C(F)(F)F)ccn2)C1=O (stereo not drawn) [AI5, 4-ethoxy-2-hydroxy-3-methyl-1-[4-(trifluoromethyl)-2-pyridyl]-2H-pyrrol-5-one] | 4 | 4 | 4 | 5 | 5 | 3 | 4 | 5 | 5 | 5 | 4 | 3 |
